{"source": "the supplement of paper PMC10307832", "assay_in_all_cases": "relative viability (nuclei count vs DMSO), 5 days (fraction); higher = more cells survive", "key": {"[1]": {"tested_on": "NCI-H1734", "how_it_was_run": "(§1)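 Relative viability divides the nuclei count in treated wells by that in vehicle wells. Lung cancer cell lines were seeded in 1536-well plates, dosed by pin tool the next day, and fixed and stained after 5 days in one step with final 0.05% Triton X-100, 1% formaldehyde and 1 ug/ml Hoechst. Dosing was a single drug or a fixed anchor-drug dose plus five library-drug doses (not always all listed) in √10 steps, and values are medians of duplicate plates imaged at 4×.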"}, "[2]": {"tested_on": "EKVX", "how_it_was_run": "as §1"}, "[3]": {"tested_on": "NCI-H1793", "how_it_was_run": "as §1"}, "[4]": {"tested_on": "NCI-H2347", "how_it_was_run": "as §1"}, "[5]": {"tested_on": "NCI-H1437", "how_it_was_run": "as §1"}, "[6]": {"tested_on": "HCC-827", "how_it_was_run": "as §1"}, "[7]": {"tested_on": "LXF-289", "how_it_was_run": "as §1"}, "[8]": {"tested_on": "NCI-H522", "how_it_was_run": "as §1"}, "[9]": {"tested_on": "HARA", "how_it_was_run": "as §1"}, "[10]": {"tested_on": "NCI-H358", "how_it_was_run": "as §1"}, "[11]": {"tested_on": "UMC-11", "how_it_was_run": "as §1"}, "[12]": {"tested_on": "HCC-78", "how_it_was_run": "as §1"}, "[13]": {"tested_on": "CAL-12T", "how_it_was_run": "as §1"}, "[14]": {"tested_on": "201T", "how_it_was_run": "as §1"}, "[15]": {"tested_on": "LU99A", "how_it_was_run": "as §1"}, "[16]": {"tested_on": "NCI-H1648", "how_it_was_run": "as §1"}, "[17]": {"tested_on": "NCI-H2170", "how_it_was_run": "as §1"}, "[18]": {"tested_on": "NCI-H1915", "how_it_was_run": "as §1"}, "[19]": {"tested_on": "LOU-NH91", "how_it_was_run": "as §1"}, "[20]": {"tested_on": "COR-L 105", "how_it_was_run": "as §1"}, "[21]": {"tested_on": "NCI-H2342", "how_it_was_run": "as §1"}, "[22]": {"tested_on": "HCC-366", "how_it_was_run": "as §1"}}, "data": [{"smiles": "Nc1cccc2c1CN(C1CCC(=O)NC1=O)C2=O", "note": "(centres undefined) [Lenalidomide] + CC(=O)Nc1cccc(-n2c(=O)n(C3CC3)c(=O)c3c(Nc4ccc(I)cc4F)n(C)c(=O)c(C)c32)c1 [Trametinib] (partner 0.02 µM)", "values": [{"measurement": "relative viability", "setting": "[1]; first compound 0.253 µM", "result": 0.69}, {"measurement": "relative viability", "setting": "[1]; first compound 0.8 µM", "result": 0.606}, {"measurement": "relative viability", "setting": "[1]; first compound 2.53 µM", "result": 0.702}, {"measurement": "relative viability", "setting": "[1]; first compound 8 µM", "result": 0.605}, {"measurement": "relative viability", "setting": "[2]; first compound 0.253 µM", "result": 0.391}, {"measurement": "relative viability", "setting": "[2]; first compound 0.8 µM", "result": 0.32}, {"measurement": "relative viability", "setting": "[2]; first compound 2.53 µM", "result": 0.432}, {"measurement": "relative viability", "setting": "[2]; first compound 8 µM", "result": 0.328}, {"measurement": "relative viability", "setting": "[3]; first compound 0.253 µM", "result": 0.458}, {"measurement": "relative viability", "setting": "[3]; first compound 2.53 µM", "result": 0.474}, {"measurement": "relative viability", "setting": "[3]; first compound 8 µM", "result": 0.451}, {"measurement": "relative viability", "setting": "[4]; first compound 0.253 µM", "result": 0.329}, {"measurement": "relative viability", "setting": "[4]; first compound 0.8 µM", "result": 0.279}, {"measurement": "relative viability", "setting": "[4]; first compound 2.53 µM", "result": 0.323}, {"measurement": "relative viability", "setting": "[4]; first compound 8 µM", "result": 0.179}, {"measurement": "relative viability", "setting": "[5]; first compound 0.253 µM", "result": 0.523}, {"measurement": "relative viability", "setting": "[5]; first compound 0.8 µM", "result": 0.365}, {"measurement": "relative viability", "setting": "[5]; first compound 2.53 µM", "result": 0.611}, {"measurement": "relative viability", "setting": "[5]; first compound 8 µM", "result": 0.486}, {"measurement": "relative viability", "setting": "[6]; first compound 0.253 µM", "result": 0.462}, {"measurement": "relative viability", "setting": "[6]; first compound 0.8 µM", "result": 0.594}, {"measurement": "relative viability", "setting": "[6]; first compound 2.53 µM", "result": 0.518}, {"measurement": "relative viability", "setting": "[6]; first compound 8 µM", "result": 0.52}, {"measurement": "relative viability", "setting": "[7]; first compound 0.253 µM", "result": 0.661}, {"measurement": "relative viability", "setting": "[7]; first compound 0.8 µM", "result": 0.604}, {"measurement": "relative viability", "setting": "[7]; first compound 2.53 µM", "result": 0.671}, {"measurement": "relative viability", "setting": "[7]; first compound 8 µM", "result": 0.691}, {"measurement": "relative viability", "setting": "[8]; first compound 0.253 µM", "result": 0.813}, {"measurement": "relative viability", "setting": "[8]; first compound 0.8 µM", "result": 0.803}, {"measurement": "relative viability", "setting": "[8]; first compound 2.53 µM", "result": 0.725}, {"measurement": "relative viability", "setting": "[8]; first compound 8 µM", "result": 0.623}, {"measurement": "relative viability", "setting": "[9]; first compound 0.253 µM", "result": 0.715}, {"measurement": "relative viability", "setting": "[9]; first compound 2.53 µM", "result": 0.542}, {"measurement": "relative viability", "setting": "[9]; first compound 8 µM", "result": 1.04}, {"measurement": "relative viability", "setting": "[10]; first compound 0.8 µM", "result": 0.132}, {"measurement": "relative viability", "setting": "[10]; first compound 2.53 µM", "result": 0.133}, {"measurement": "relative viability", "setting": "[10]; first compound 8 µM", "result": 0.19}, {"measurement": "relative viability", "setting": "[11]; first compound 0.253 µM", "result": 0.514}, {"measurement": "relative viability", "setting": "[11]; first compound 0.8 µM", "result": 0.449}, {"measurement": "relative viability", "setting": "[11]; first compound 2.53 µM", "result": 0.885}, {"measurement": "relative viability", "setting": "[11]; first compound 8 µM", "result": 0.472}, {"measurement": "relative viability", "setting": "[12]; first compound 0.253 µM", "result": 0.728}, {"measurement": "relative viability", "setting": "[12]; first compound 0.8 µM", "result": 0.633}, {"measurement": "relative viability", "setting": "[12]; first compound 2.53 µM", "result": 0.692}, {"measurement": "relative viability", "setting": "[12]; first compound 8 µM", "result": 0.822}, {"measurement": "relative viability", "setting": "[13]; first compound 0.253 µM", "result": 0.371}, {"measurement": "relative viability", "setting": "[13]; first compound 0.8 µM", "result": 0.292}, {"measurement": "relative viability", "setting": "[13]; first compound 2.53 µM", "result": 0.431}, {"measurement": "relative viability", "setting": "[13]; first compound 8 µM", "result": 0.306}, {"measurement": "relative viability", "setting": "[14]; first compound 0.253 µM", "result": 0.719}, {"measurement": "relative viability", "setting": "[14]; first compound 0.8 µM", "result": 0.754}, {"measurement": "relative viability", "setting": "[14]; first compound 2.53 µM", "result": 0.762}, {"measurement": "relative viability", "setting": "[14]; first compound 8 µM", "result": 0.713}, {"measurement": "relative viability", "setting": "[15]; first compound 0.253 µM", "result": 0.509}, {"measurement": "relative viability", "setting": "[15]; first compound 0.8 µM", "result": 0.537}, {"measurement": "relative viability", "setting": "[15]; first compound 2.53 µM", "result": 0.644}, {"measurement": "relative viability", "setting": "[15]; first compound 8 µM", "result": 0.425}, {"measurement": "relative viability", "setting": "[16]; first compound 0.253 µM", "result": 0.556}, {"measurement": "relative viability", "setting": "[16]; first compound 2.53 µM", "result": 0.597}, {"measurement": "relative viability", "setting": "[16]; first compound 8 µM", "result": 0.476}, {"measurement": "relative viability", "setting": "[17]; first compound 0.253 µM", "result": 0.933}, {"measurement": "relative viability", "setting": "[17]; first compound 0.8 µM", "result": 0.886}, {"measurement": "relative viability", "setting": "[17]; first compound 2.53 µM", "result": 0.954}, {"measurement": "relative viability", "setting": "[17]; first compound 8 µM", "result": 0.823}, {"measurement": "relative viability", "setting": "[18]; first compound 0.253 µM", "result": 0.306}, {"measurement": "relative viability", "setting": "[18]; first compound 0.8 µM", "result": 0.319}, {"measurement": "relative viability", "setting": "[18]; first compound 2.53 µM", "result": 0.323}, {"measurement": "relative viability", "setting": "[18]; first compound 8 µM", "result": 0.283}, {"measurement": "relative viability", "setting": "[19]; first compound 0.253 µM", "result": 0.786}, {"measurement": "relative viability", "setting": "[19]; first compound 0.8 µM", "result": 0.78}, {"measurement": "relative viability", "setting": "[19]; first compound 2.53 µM", "result": 0.771}, {"measurement": "relative viability", "setting": "[19]; first compound 8 µM", "result": 0.679}, {"measurement": "relative viability", "setting": "[20]; first compound 0.253 µM", "result": 0.493}, {"measurement": "relative viability", "setting": "[20]; first compound 0.8 µM", "result": 0.471}, {"measurement": "relative viability", "setting": "[20]; first compound 2.53 µM", "result": 0.462}, {"measurement": "relative viability", "setting": "[20]; first compound 8 µM", "result": 0.416}, {"measurement": "relative viability", "setting": "[21]; first compound 0.253 µM", "result": 0.796}, {"measurement": "relative viability", "setting": "[21]; first compound 0.8 µM", "result": 0.894}, {"measurement": "relative viability", "setting": "[21]; first compound 2.53 µM", "result": 0.739}, {"measurement": "relative viability", "setting": "[21]; first compound 8 µM", "result": 0.692}, {"measurement": "relative viability", "setting": "[22]; first compound 0.253 µM", "result": 0.33}, {"measurement": "relative viability", "setting": "[22]; first compound 0.8 µM", "result": 0.353}, {"measurement": "relative viability", "setting": "[22]; first compound 2.53 µM", "result": 0.386}, {"measurement": "relative viability", "setting": "[22]; first compound 8 µM", "result": 0.264}]}]}
